The record followed here is patent US20200131476A1, “Differentiation Of Immunocytes Using Pluripotent Stem Cells” (Korea Center For Disease Control And Prevention, priority 2017, published 2020).

The subject of this assay is pluripotent stem cells. Put plainly: Differentiation of pluripotent stem cells into CD34+CD45+ hematopoietic stem cells (FACS). The format is cell-based. An excerpt:
1) Pluripotent stem cells were adapted to a matrigel-coated dish and a mTeSR1 medium for 3 weeks, and then other colonies except for 5 colonies in 35 pi dish were removed by pipetting. This is a process for providing space for the proliferation of differentiated cells in the future. At this time, when vitronectin is used as a coating material or mTeSR8 is used as a medium, the differentiation of hematopoietic stem cells or macrophages can be induced.
2) The medium for culturing the stem cells used in 1) above was replaced with APEL medium. […] The differentiation into mesodermal cells was induced rapidly by treating with BMP4 at a high concentration (100 ng/ml) for 2 days and then sequentially at a low concentration (20 ng/ml) for 2 days.
In addition, the efficiency of differentiation of hematopoietic stem cells can be increased by treating with the CDDO methyl ester compound together with BMP4 for 4 days. […]
CD34+ and CD45+ are markers specifically expressed in hematopoietic stem cells. […] In order to confirm this, the amount of expression of the markers specifically expressed in hematopoietic stem cells was measured.
The differentiated cells were monolayered and reacted with the antibodies CD34 and CD45 labeled with fluorescence. […]

Each structure is given as a SMILES string.

For the compound `COC(=O)[C@]12CCC(C)(C)C[C@H]1[C@H]1C(=O)C=C3[C@@]4(C)C=C(C#N)C(=O)C(C)(C)[C@@H]4CC[C@@]3(C)[C@]1(C)CC2` [CDDO methyl ester, 2-cyano-3,12-dioxooleana-1,9(11)-dien-28-oic acid methyl ester], the “efficiency of differentiation of hematopoietic stem cells, increase” value (50 nM added together with BMP4 for 4 days, versus no CDDO methyl ester, FIG. 4) is “about 3 times”. Moreover, the “yield of hematopoietic stem cells” value (further treating with the compound in the BMP4 treatment step) was “improved by three times or more”.
